Data set [1] concerns the target T1, Alpha-glucosidase (Saccharomyces cerevisiae S288c, UniProt P53341+P38158+P07265). As to the kind of experiment: Inhibition of Saccharomyces cerevisiae alpha-glucosidase using pNPG as substrate preincubated with compound for 20 mins followed by substrate addition measured after 1 hrs by absorbance based analysis. Format: protein assay.
For another data set, the target named is T2, Alpha-amylase (Sus scrofa domesticus, UniProt Q7M328).
T2 sequence (Q7M328 whole entry): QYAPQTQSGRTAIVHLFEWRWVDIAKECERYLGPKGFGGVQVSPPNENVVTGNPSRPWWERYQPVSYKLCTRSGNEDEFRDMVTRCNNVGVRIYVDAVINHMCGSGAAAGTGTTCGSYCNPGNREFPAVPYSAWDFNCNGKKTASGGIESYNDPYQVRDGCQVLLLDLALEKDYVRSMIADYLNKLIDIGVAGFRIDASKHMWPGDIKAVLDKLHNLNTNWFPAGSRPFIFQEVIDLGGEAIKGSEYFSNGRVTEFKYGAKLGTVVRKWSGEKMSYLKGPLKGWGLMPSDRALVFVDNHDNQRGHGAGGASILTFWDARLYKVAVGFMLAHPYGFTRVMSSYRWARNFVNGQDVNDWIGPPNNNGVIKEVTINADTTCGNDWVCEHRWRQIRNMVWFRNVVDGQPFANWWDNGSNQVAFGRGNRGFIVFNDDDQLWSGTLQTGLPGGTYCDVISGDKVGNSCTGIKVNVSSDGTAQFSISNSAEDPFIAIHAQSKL
As to the kind of experiment: Inhibition of porcine pancreatic alpha-amylase using pNPG as substrate preincubated with compound for 20 mins followed by substrate addition measured after 1 hrs by absorbance based analysis.

Data set [2] can be described thus: Inhibition of alpha-glucosidase (unknown origin). On the set-up: species or system Homo sapiens.
Data set [3] is described as follows: Cytotoxicity against mouse L929 cells assessed reduction in cell viability incubated for 24 hrs by MTT assay. Format: toxicity, cell-based.
Data set [4] can be described thus: Selectivity index, ratio of IC50 for inhibition of porcine pancreatic alpha-amylase using pNPG as substrate to IC50 for inhibition of Saccharomyces cerevisiae alpha-glucosidase using pNPG as substrate.
The test system of the next data set is Origanum vulgare. Nature of the data set: Inhibition of Origanum vulgare alpha-glucosidase at 18 microg/ml relative to control. Conditions: dose 18.0 µg/ml.
The target in data set [5] is T1, Alpha-glucosidase. As to the kind of experiment: Mixed type inhibition of Saccharomyces cerevisiae alpha-glucosidase using pNPG as substrate assessed as inhibition constant preincubated for 20 mins followed by substrate addition measured after 1 hrs by Lineweaver-burk plot analysis. Format: protein assay.
Data set [6] can be described thus: Acute toxicity in Wistar rat assessed as change in salivation at 300 mg/kg, po measured for 14 days. The data set is classed as organism-based. Conditions: in vivo, 336 h, time 14 day.
A short description of data set [7]: Acute toxicity in Wistar rat assessed as change in salivation at 50 mg/kg, po measured for 14 days. The data set is classed as organism-based. The note with it: in vivo, 336 h, time 14 day.
Data set [8] can be described thus: Acute toxicity in Wistar rat assessed as change in salivation at 5 mg/kg, po measured for 14 days. Format: organism-based. Conditions: in vivo, 336 h, time 14 day.
The nature of data set [9]: Acute toxicity in Wistar rat assessed as lethal dose measured for 14 days. Conditions: in vivo, time 14 day.
Data set [10] is described as follows: Acute toxicity in Wistar rat assessed as mortality rate at 300 mg/kg, po measured for 14 days. Conditions: in vivo, time 14 day, read-out: Activity. The data set is classed as organism-based.
Data set [11] relates to Rattus norvegicus. As to the kind of experiment: Hypoglycemic activity in streptozotocin-induced diabetic Wistar rat model assessed as decrease in blood glucose level at 5 to 20 mg/kg, po administered for 5 days and measured after 30 mins by glucometer analysis. The data set is classed as functional, organism-based. The note with it: dose 5-20 mg/kg, time 7230.0 min.
The test system of data set [12] is Rattus norvegicus. As to the kind of experiment: Hypoglycemic activity in streptozotocin-induced diabetic Wistar rat model assessed as decrease in blood glucose level at 5 mg/kg, po administered for 5 days and measured after 1 hr by maltose loading test relative to control. Format: functional. On the set-up: scale not given: the % may be the effect or the level left. The note with it: time 121 hrs.

Data set [13] concerns Rattus norvegicus. Nature of the data set: Hypoglycemic activity in streptozotocin-induced diabetic Wistar rat model assessed as decrease in blood glucose level at 10 mg/kg, po administered for 5 days and measured after 1 hr by maltose loading test relative to control. Format: functional. On the set-up: scale not given: the % may be the effect or the level left. Conditions: time 121 hrs.

Data set [14] relates to Rattus norvegicus. As to the kind of experiment: Hypoglycemic activity in streptozotocin-induced diabetic Wistar rat model assessed as decrease in blood glucose level at 20 mg/kg, po administered for 5 days and measured after 1 hr by maltose loading test relative to control. Format: functional. The note with it: time 121 hrs. On the set-up: scale not given: the % may be the effect or the level left.

The subject of data set [15] is Rattus norvegicus. Nature of the data set: Hypoglycemic activity in streptozotocin-induced diabetic Wistar rat model assessed as decrease in blood glucose level at 5 mg/kg, po administered for 5 days and measured after 1 hr by sucrose loading test relative to control. Format: functional. On the set-up: scale not given: the % may be the effect or the level left. The note with it: time 121 hrs.

Data set [16] has as its system Rattus norvegicus. Nature of the data set: Hypoglycemic activity in streptozotocin-induced diabetic Wistar rat model assessed as decrease in blood glucose level at 10 mg/kg, po administered for 5 days and measured after 1 hr by sucrose loading test relative to control. The data set is classed as functional. On the set-up: scale not given: the % may be the effect or the level left. The note with it: time 121 hrs.

Data set [17] concerns Rattus norvegicus. As to the kind of experiment: Hypoglycemic activity in streptozotocin-induced diabetic Wistar rat model assessed as decrease in blood glucose level at 20 mg/kg, po administered for 5 days and measured after 1 hr by sucrose loading test relative to control. The data set is classed as functional. On the set-up: scale not given: the % may be the effect or the level left. The note with it: time 121 hrs.

Data set [18] has as its system Rattus norvegicus. Nature of the data set: Hypoglycemic activity in streptozotocin-induced diabetic Wistar rat model assessed as reduction in fasting blood glucose level at 10 mg/kg, po measured every 7 days for 28 days relative to control. On the set-up: scale not given: the % may be the effect or the level left. Format: functional. Conditions: time 7 day.
The test system of data set [19] is Rattus norvegicus. As to the kind of experiment: Hypoglycemic activity in streptozotocin-induced diabetic Wistar rat model assessed as reduction in fasting blood glucose level at 20 mg/kg, po measured every 7 days for 28 days relative to control. The data set is classed as functional. On the set-up: scale not given: the % may be the effect or the level left. Conditions: time 7 day.

Data set [20] can be described thus: Toxicity in Wistar rat assessed as effect on body weight at 20 mg/kg, po measured for 28 days. Format: organism-based. The note with it: in vivo, 672 h, time 28 day.

Molecules are shown by their SMILES. Active and inactive are the calls of the source. No cut-off for these calls is given here.

`Cc1ccc(C(C)C)c(OCc2cn(CCCOc3cc(=O)oc4ccccc34)nn2)c1`: the results for the IC50 at Alpha-glucosidase [1] and on Alpha-amylase were 37.59 µM and over 100 µM, respectively.
Turning to `Cc1ccc(CNC(=O)Cn2cc(COc3cc(=O)oc4ccccc34)nn2)cc1`, in [2], it took 3.5 µM to reach half-maximal inhibition (IC50).
For `Cc1ccc(C(C)C)c(OCc2cn(CCCCCCOc3ccc4ccc(=O)oc4c3)nn2)c1`, the IC50 at Alpha-glucosidase [1] and at Alpha-amylase was over 100 µM in each case.
Regarding `Cc1ccc(C(C)C)cc1OCc1cn(CCOc2ccc3ccc(=O)oc3c2)nn1`, the IC50 on Alpha-glucosidase [1] is 64.21 µM; on Alpha-amylase, over 100 µM.
With `Cc1ccc(C(C)C)c(OCc2cn(CCOc3cc(=O)oc4ccccc34)nn2)c1`, the IC50 at Alpha-glucosidase [1] was 61.24 µM; on Alpha-amylase, over 100 µM.
In the case of `Cc1ccc(C(C)C)cc1OCc1cn(CCCCCCOc2cc(=O)oc3ccccc23)nn1`, the IC50 on Alpha-glucosidase [1] is 9.23 µM; at Alpha-amylase, 69.3 µM. In [3], this compound yielded an IC50 at 24 h of over 100 µM. Besides, the Ratio IC50 in [4] amounted to 7.51.
Take `Cc1ccc(C(C)C)c(OCc2cn(CCOc3ccc4ccc(=O)oc4c3)nn2)c1`: the results for the IC50 at Alpha-glucosidase [1] and at Alpha-amylase were 56.41 µM and over 100 µM, respectively.
Turning to `Cc1ccc(C(C)C)c(OCc2cn(CCCCCCOc3cc(=O)oc4ccccc34)nn2)c1`, the IC50 at Alpha-glucosidase [1] was 16.32 µM; at Alpha-amylase, over 100 µM.
As for `Cc1ccc(C(C)C)cc1OS(=O)(=O)c1ccc(F)cc1`, the inhibition with Origanum vulgare is 57.7%. This compound came in with an IC50 in [2] of 2.56 µM.
On to `Cc1ccc(C(C)C)cc1OCc1cn(CCOc2cc(=O)oc3ccccc23)nn1`, for which the figures for the IC50 on Alpha-glucosidase [1] and on Alpha-amylase were 78.69 µM and over 100 µM, respectively.
The like results for `Cc1ccc(C(C)C)cc1OCc1cn(CCCCOc2ccc3ccc(=O)oc3c2)nn1` were, in that order, over 100 µM and over 100 µM.
Regarding `Cc1ccc(C(C)C)cc1OCc1cn(CCCCCCOc2ccc3ccc(=O)oc3c2)nn1`, the IC50 at Alpha-glucosidase [1] and at Alpha-amylase was over 100 µM in each case.
In the case of `Cc1ccc(C(C)C)cc1OCc1cn(CCCCCOc2ccc3ccc(=O)oc3c2)nn1`, the half-maximal inhibitory concentration (IC50) at Alpha-glucosidase [1] and on Alpha-amylase was over 100 µM each time.
Turning to `Cc1ccc(C(C)C)cc1OCc1cn(CCCCCOc2cc(=O)oc3ccccc23)nn1`, the IC50 on Alpha-glucosidase [1] amounted to 4.32 µM; at Alpha-amylase, 37.4 µM. For the same compound, the IC50 at 24 h in [3] is over 100 µM. Further, the Ratio IC50 in [4] stood at 8.65. Further, the Ki at Alpha-glucosidase [5] amounted to 0.832 µM. The Activity entry is listed as “Non-Toxic” in data set [6]; “Non-Toxic” in data set [7]; “Non-Toxic” in data set [8]; 28.91% with Rattus norvegicus [12]; 62.65% in the data set with Rattus norvegicus [13]; 70.12% in the data set with Rattus norvegicus [14]. In addition, the Activity is given as 25.24% with Rattus norvegicus [15]; 59.65% in the data set with Rattus norvegicus [16]; 60.23% in the data set on Rattus norvegicus [17]; 54.69% in the data set on Rattus norvegicus [18]; 62.23% with Rattus norvegicus [19]; “Non-Toxic” in data set [20]. Besides, in [9], the LD50 at 336 h turned out to be 300 mg/kg. Besides, the mortality at 336 h in [10] was 67%. The result with Rattus norvegicus [11] was Active.
`Cc1ccc(C(C)C)c(OS(=O)(=O)c2ccc(F)cc2)c1`: in the data set with Origanum vulgare, the inhibition worked out at 57.7%. In addition, the midpoint of inhibition in data set [2], the IC50, lay at 2.3 µM.
Consider `Cc1ccc(C(C)C)c(OCc2cn(CCCCCOc3cc(=O)oc4ccccc34)nn2)c1`, for which the values for the half-inhibitory concentration (IC50) on Alpha-glucosidase [1] and on Alpha-amylase were 7.53 µM and 57.3 µM, respectively. The same compound displayed a 50% inhibitory concentration (IC50) at 24 h in data set [3] of over 100 µM. Moreover, the Ratio IC50 in data set [4] is 7.61.
`Cc1ccc(C(C)C)cc1OCc1cn(CCCOc2cc(=O)oc3ccccc23)nn1`: the IC50 is 68.51 µM on Alpha-glucosidase [1] and over 100 µM on Alpha-amylase.
The like results for `Cc1ccc(C(C)C)cc1OCc1cn(CCCOc2ccc3ccc(=O)oc3c2)nn1` were, in that order, over 100 µM and over 100 µM.
The like results for `Cc1ccc(C(C)C)c(OCc2cn(CCCOc3ccc4ccc(=O)oc4c3)nn2)c1` were, in that order, 72.91 µM and over 100 µM.
The corresponding values for `Cc1ccc(C(C)C)cc1OCc1cn(CCCCOc2cc(=O)oc3ccccc23)nn1` are 26.48 µM and over 100 µM.
As to `Cc1ccc(C(C)C)c(OCc2cn(CCCCOc3ccc4ccc(=O)oc4c3)nn2)c1`, the concentration for half-maximal inhibition (IC50) on Alpha-glucosidase [1] and at Alpha-amylase was over 100 µM in each case.
As for `C[C@H]1O[C@H](O[C@H]2[C@H](O)[C@@H](O)[C@@H](O[C@H]3[C@H](O)[C@@H](O)C(O)O[C@@H]3CO)O[C@@H]2CO)[C@H](O)[C@@H](O)[C@@H]1N[C@H]1C=C(CO)[C@@H](O)[C@H](O)[C@H]1O` (some centres not stated) [ACARBOSE], the results for the Activity in the data set with Rattus norvegicus [13], with Rattus norvegicus [16] and in the data set on Rattus norvegicus [18] were 53.01%, 56.31% and 25.86%, respectively.
With `O=C(Cn1cc(COc2ccc3ccc(=O)oc3c2)nn1)NCc1cccc(Br)c1`, in data set [2], the IC50 was found to be 0.543 µM.
Regarding `Cc1ccc(C(C)C)c(OCc2cn(CCCCOc3cc(=O)oc4ccccc34)nn2)c1`, the IC50 at Alpha-glucosidase [1] was 25.36 µM; at Alpha-amylase, 77.5 µM. Also, in data set [4], the Ratio IC50 was 3.06.
Regarding `Cc1ccc(C(C)C)c(OCc2cn(CCCCCOc3ccc4ccc(=O)oc4c3)nn2)c1`, the IC50 on Alpha-glucosidase [1] and on Alpha-amylase was over 100 µM throughout.

(Values after ChEMBL document CHEMBL5537123, “Discovery of triazole tethered thymol/carvacrol-coumarin hybrids as new class of α-glucosidase inhibitors with potent in vivo antihyperglycemic activities” (Eur J Med Chem, 2024).)
